According to patent US12447165B2, “Intratumoral vein-formation promoting agent” (OSAKA UNIVERSITY, priority 2016, dated 2025):

What was measured:
[1] = test system: LLC cells; assay: Tumor volume, combination of soybean PC and 5-FU, LLC cancer-bearing mice (Example 12); assay type: in vivo, mouse; conditions: soybean PC 3 mg/kg i.v. daily day 7 to 20, 5-FU 20 mg/kg i.p. day 7 and 14, volume to day 21
Protocol: LLC cells (1×10^6 cells in 100 μL of PBS per animal) were subcutaneously injected into C57BL/6NCrSlc mice aged 8 weeks (females, SLC, Inc.) to generate cancer-bearing mice. The mice were assigned to 4 groups: a soybean PC group, a 5-FU group, a soybean PC plus 5-FU group, and a control group (vehicle administration group) (3 animals per group). For the soybean PC group and the soybean PC plus 5-FU group, in the same manner as in Example 1, 3 mg/kg (100 μL) of the soybean PC was administered once daily via the mouse tail vein for […] from day 7 to day 20 post-cancer cell inoculation. For the 5-FU group and the soybean PC plus 5-FU group, 5-FU (Kyowa Hakko Kirin Co., Ltd.) was intraperitoneally administered at a dose of 20 mg/kg on day 7 and day 14 post-cancer cell inoculation. Tumor volume was measured on day 7, day 14 and day 21 post-cancer cell inoculation. The tumor volume was calculated by the following formula: length×width×height×0.5.

[2] = test system: LLC cells; assay: Various phosphatidylcholines: intratumoral lymphocyte infiltration, LLC cancer-bearing mice (Example 9); assay type: in vivo, mouse; conditions: LLC tumor; PC 3 mg/kg i.v. once daily day 7 to 13; harvested day 14; CD4- and CD8-positive cells
Source text: The PCs of Group A were dioctanoyl phosphatidylcholine (Avanti POLAR LIPIDS), dimyristoyl phosphatidylcholine (Nippon Fine Chemical), distearoyl phosphatidylcholine (Nippon Fine Chemical), dioleoyl phosphatidylcholine (Nippon Fine Chemical) and dilinoleoyl phosphatidylcholine (Avanti POLAR LIPIDS). The PCs of Group B were (1-palmitoyl-2-myristoyl) phosphatidylcholine (Avanti POLAR LIPIDS) and (1-palmitoyl-2-oleoyl) phosphatidylcholine (Avanti POLAR LIPIDS).
In the same manner as in Example 1, LLC cells ([…] cells in 100 μL of PBS per animal) were subcutaneously injected into C57BL/6NCrSlc mice aged 8 weeks (females, SLC, Inc.) to generate cancer-bearing mice. For 7 consecutive days from day 7 to day 13 post-cancer cell inoculation, the PCs indicated above were administered at a dose of 3 mg/kg (100 μL) once daily via the mouse tail vein. The vehicle was administered to the mice of the control group. On the day following the final administration (day 14 post-inoculation), the tumors were harvested from the mice. In the same manner as in Example 1, tumor tissue sections were prepared, tumor vasculature was observed, and intratumoral lymphocyte infiltration was examined.

[3] = test system: human umbilical vein endothelial cells (HUVECs); assay: Tubulogenesis of cultured HUVECs on Matrigel with VEGF (Examples 13 and 14); assay type: cell-based; conditions: HUVEC on Matrigel, Example 14
Protocol: Each well of a 48-well plate was coated with 200 μL of Matrigel (BD biosciences), and human umbilical vein endothelial cells (HUVECs; Kurabo Industries Ltd.) were seeded at 5×10^4 cells/200 μL/well and cultured. For the culture, HuMedia-EB2 medium (Kurabo Industries, Ltd.) supplemented with 1% FCS was used. VEGF (recombinant human VEGF165, Peprotech) was added at a final concentration of 10 ng/mL to the culture medium to induce tubulogenesis of the vascular endothelial cells. Soybean PC was also added at 10 μM concomitantly with VEGF. At 12 to 16 hours after the start of the culture, the cells were photographed under a microscope. In addition, Hoechst (Boehringer Ingelheim) was added to stain cell nuclei, and newly formed blood vessels were observed. The wells not containing the soybean PC were used as a control.
The same experiment as in Example 12 was performed using soybean PC and other 8 types of PCs. The PCs were classified as Group A or B as with Example 8. The PCs used were as follows (see Table 2).

[4] = test system: intratumoral vessels; assay: Phosphatidylcholine administration to lysophosphatidic acid receptor 4-deficient mice; assay type: in vivo, mouse
Source text: Lysophosphatidic acid is enzymatically synthesized from lysophosphatidylcholine, which is produced by enzymatic decomposition of phosphatidylcholine. Considering this, there was a possibility that the newly discovered effects of phosphatidylcholine might be underlain by the mechanism that the administered phosphatidylcholine undergoes in vivo decomposition into lysophosphatidic acid, which activates a lysophosphatidic acid receptor and thereby produces the effects. However, the structural improvement of intratumoral vessels and the promotion of immune cell infiltration after phosphatidylcholine administration were not observed after lysophosphatidyicholine administration (see Reference Example 1). […] Therefore, the effects of phosphatidylcholine were proven not to be mediated by a lysophosphatidic acid receptor.

Compound	tumor volume (tumor growth) as compared with the control group [1]	Lymphocyte Infiltration [2]	Vein-like morphological change [3]	immune cell infiltration [4]	structure of intratumoral vessels [4]
O=c1[nH]cc(F)c(=O)[nH]1 [5-FU]	tumor growth inhibition				
CCCCCCCCCCCCCCCC(=O)OC[C@H](COP(=O)([O-])OCC[N+](C)(C)C)OC(=O)CCCCCCCCCCCCC [(1-palmitoyl-2-myristoyl) phosphatidylcholine]		yes	yes		
CCCCCCCC/C=C\CCCCCCCC(=O)O[C@H](COC(=O)CCCCCCCCCCCCCCC)COP(=O)([O-])OCC[N+](C)(C)C [(1-palmitoyl-2-oleoyl) phosphatidylcholine]		yes	yes		
CC/C=C\C/C=C\C/C=C\C/C=C\C/C=C\C/C=C\CCC(=O)OC[C@H](COP(=O)([O-])OCC[N+](C)(C)C)OC(=O)CC/C=C\C/C=C\C/C=C\C/C=C\C/C=C\C/C=C\CC [Didocosahexaenoyl phosphatidylcholine, didocosahexaenoyl phosphatidylcholine]			yes		
CCCCC/C=C\C/C=C\CCCCCCCC(=O)OC[C@H](COP(=O)([O-])OCC[N+](C)(C)C)OC(=O)CCCCCCC/C=C\C/C=C\CCCCC [Dilinoleoyl phosphatidylcholine, dilinoleoyl phosphatidylcholine]		yes	yes		
CCCCCCCCCCCCCC(=O)OC[C@H](COP(=O)([O-])OCC[N+](C)(C)C)OC(=O)CCCCCCCCCCCCC [Dimyristoyl phosphatidylcholine, dimyristoyl phosphatidylcholine]		yes	yes		
CCCCCCCC(=O)OCC(COP(=O)([O-])OCC[N+](C)(C)C)OC(=O)CCCCCCC (stereo not drawn) [Dioctanoyl phosphatidylcholine, dioctanoyl phosphatidylcholine]		yes	yes		
CCCCCCCC/C=C\CCCCCCCC(=O)OC[C@H](COP(=O)([O-])OCC[N+](C)(C)C)OC(=O)CCCCCCC/C=C\CCCCCCCC [Dioleoyl phosphatidylcholine, dioleoyl phosphatidylcholine]		yes	yes		
CCCCCCCCCCCCCCCCCC(=O)OC[C@H](COP(=O)([O-])OCC[N+](C)(C)C)OC(=O)CCCCCCCCCCCCCCCCC [Distearoyl phosphatidylcholine, distearoyl phosphatidylcholine]		yes	yes		
phosphatidylcholine				promoted immune cell infiltration	improved the structure of intratumoral vessels
